# Article PMC9501810, “Bitter Peptides YFYPEL, [sequence], and [sequence], Released during Gastric Digestion of Casein, Stimulate Mechanisms of Gastric Acid Secretion via Bitter Taste Receptors TAS2R16 and TAS2R38” (Journal of Agricultural and Food Chemistry, 2022)
# Where “and” joins values, the source holds several entries; their conditions need not be identical. Identical values can stand only once.
# Experiments:
# Assay type in all cases: cell-based, human
# TAS2R31 = assay: RT-qPCR gene expression of TAS2R31 in HGT-1 cells; details: VAPFPEVF 17.5 µM, YFYPEL 0.03 µM, YQEPVLGPVRGPFPIIV 0.4 µM, normalized to PPIA and GAPDH and untreated cells, mean, n = 3–5
# Method: (§1) For mRNA expression analysis, 800,000 cells were seeded in a T25 cell culture flask (25 cm^2) 1 day before the experiment. After incubation with 17.5 μM […], 0.03 μM YFYPEL, or 0.4 μM […] for 15, 30, 60, and 120 min, RNA was isolated using the peqGOLD RNA Kit (VWR Peqlab, USA) following the manufacturer’s protocol. Determination of RNA concentration (A260/A280 between 2.03 and 2.09) was performed on a NanoDrop One^c (Thermo Fisher Scientific Inc., USA). RNA integrity number (RIN 9.9–10.0, version 2.6, assay class Eukaryote Total RNA Nano) was analyzed using a 2100 Bioanalyzer (Agilent Technologies, USA). Removal of gDNA and synthesis of cDNA were performed using the iScript gDNA Clear cDNA Synthesis Kit (BioRad, Feldkirchen, Germany) following the manufacturer’s protocol. Real-time-qPCR (RT-qPCR) was performed with 50 ng cDNA amplified with SsoAdvanced Universal SYBR Green Supermix (Bio-Rad Laboratories, Inc., USA). The sequences of the forward and reverse primers of the 25 TAS2Rs were taken from Liszt et al.([13]) (Supporting Information Table-SI 3). Verified primers for the TAS1Rs (TAS1R1: qHsaCID0013443; TAS1R2: qHsaCID0016106; TAS1R3: qHsaCED0002321) and for MAPK1 (qHsaCEP0050000) were obtained from Bio-Rad Laboratories. PPIA[37] and GAPDH[38] were used as reference genes. The effects of the peptides on gene expression were analyzed in comparison to untreated control cells.
# TAS2R40 = assay: RT-qPCR gene expression of TAS2R40 in HGT-1 cells; details: VAPFPEVF 17.5 µM, YFYPEL 0.03 µM, YQEPVLGPVRGPFPIIV 0.4 µM, normalized to PPIA and GAPDH and untreated cells, mean, n = 3–5
# Method: as §1
# TAS2R30 = assay: RT-qPCR gene expression of TAS2R30 in HGT-1 cells; details: VAPFPEVF 17.5 µM, YFYPEL 0.03 µM, YQEPVLGPVRGPFPIIV 0.4 µM, normalized to PPIA and GAPDH and untreated cells, mean, n = 3–5
# Method: as §1
# TAS2R42 = assay: RT-qPCR gene expression of TAS2R42 in HGT-1 cells; details: VAPFPEVF 17.5 µM, YFYPEL 0.03 µM, YQEPVLGPVRGPFPIIV 0.4 µM, normalized to PPIA and GAPDH and untreated cells, mean, n = 3–5
# Method: as §1
# TAS2R9 = assay: RT-qPCR gene expression of TAS2R9 in HGT-1 cells; details: VAPFPEVF 17.5 µM, YFYPEL 0.03 µM, YQEPVLGPVRGPFPIIV 0.4 µM, normalized to PPIA and GAPDH and untreated cells, mean, n = 3–5
# Method: as §1
# TAS2R16 = assay: Proton secretion assay in TAS2R16 knock-down vs mock-transfected HGT-1 cells; details: TAS2R16kd vs mock-transfected HGT-1 cells, VAPFPEVF 17.5 µM, YFYPEL 0.03 µM, YQEPVLGPVRGPFPIIV 0.4 µM, 10 min, mean ± SEM; for decrease of the peptide-induced increase in proton secretion activity in TAS2R16kd cells: 72 h after 10 nM siRNA; for change of peptide-induced proton secretion, TAS2R16kd (Figure 5B–D): negative = reduction
# Method: The measurement of proton secretion from HGT-1 cells represents a well-established model for the identification of bitter compounds. By affecting extraoral bitter taste receptors with bitter compounds, a modulatory effect on proton secretion can be measured. For this purpose, cells were washed with KRHB and incubated with 3 μM of the intracellular pH indicator 1,5 carboxy-seminaphto-rhodafluor acetoxymethyl ester (SNARF-1-AM) under standard conditions. After 30 min, the cells were washed again with KRHB and then incubated with casein (0.01–10 μM equimolar related to the relevant forms αS1- and β-casein), hydrolysate (0.01–10 μM), or the peptides (0.01–200 μM). […] All substances were dissolved and diluted in KRHB. 1 mM histamine was used as a positive control. Measurements were performed using FlexStation 3 (Molecular Devices, USA). The excitation wavelength was 488 nm, and the emission wavelengths were 580 and 640 nm. For calibration (pH range 7.0–8.0), the intracellular and extracellular pH was adjusted with 2 μM nigericin in potassium buffer (20 mM NaCl, 110 mM KCl, 1 mM CaCl2, 1 mM MgSO4, 18 mM D-glucose, and 20 mM HEPES). The intracellular proton index (IPX) was calculated as the log2 value of the 580/640 ratio and compared with cells without treatment. Negative values represent increased secretion of protons and therefore stimulation of mechanisms regulating gastric acid secretion in HGT-1 cells. In contrast, positive values represent an inhibition of secretion compared to the untreated control.
# Expression of TAS2R16 and TAS2R38 was reduced by treatment of HGT-1 cells with siRNA. 100,000 cells per well were seeded 1 day before the experiment into a 24-well plate. All reagents and siRNA were purchased from Thermo Fisher Scientific, USA (cytotoxicity was excluded by MTT). Transfection was performed with Lipofectamine RNAiMAX in Opti-Medium according to the manufacturer’s protocol. 1–50 nM of different siRNA sequences (HSS121396 and HSS181763 for TAS2R16 and HSS108754 and HSS108756 for TAS2R38) and three different incubation times (24, 48, and 72 h) were tested. Mock control experiments were performed analogously with 1 or 10 nM Stealth RNAi siRNA negative control. To verify the functionality of the transfection process, verified 10 nM siRNA targeting MAPK1 (VHS40312) was used (positive control). The transfection rate was checked by qPCR as described in section 2.11. For the proton secretion assays, 20,000 cells per well were seeded 1 day before transfection into a black 96-well plate. After 72 h of transfection, proton secretion activities of TAS2R16 knock-down or TAS2R38 knock-down HGT-1 were compared with the mock transfected cells by means of ΔIPX.
# TAS2R10 = assay: RT-qPCR gene expression of TAS2R10 in HGT-1 cells; details: VAPFPEVF 17.5 µM, YFYPEL 0.03 µM, YQEPVLGPVRGPFPIIV 0.4 µM, normalized to PPIA and GAPDH and untreated cells, mean, n = 3–5
# Method: as §1
# TAS2R13 = assay: RT-qPCR gene expression of TAS2R13 in HGT-1 cells; details: VAPFPEVF 17.5 µM, YFYPEL 0.03 µM, YQEPVLGPVRGPFPIIV 0.4 µM, normalized to PPIA and GAPDH and untreated cells, mean, n = 3–5
# Method: as §1
# TAS2R60 = assay: RT-qPCR gene expression of TAS2R60 in HGT-1 cells; details: incubation 15/30/60/120 min, VAPFPEVF 17.5 µM, YFYPEL 0.03 µM, YQEPVLGPVRGPFPIIV 0.4 µM, expression not detectable with or without treatment
# Method: as §1
# TAS2R46 = assay: RT-qPCR gene expression of TAS2R46 in HGT-1 cells; details: VAPFPEVF 17.5 µM, YFYPEL 0.03 µM, YQEPVLGPVRGPFPIIV 0.4 µM, normalized to PPIA and GAPDH and untreated cells, mean, n = 3–5
# Method: as §1
Substance,change in gene expression of TAS2R31 (TAS2R31; incubation 15 min),change in gene expression of TAS2R31 (TAS2R31; incubation 30 min),change in gene expression of TAS2R31 (TAS2R31; incubation 60 min),change in gene expression of TAS2R31 (TAS2R31; incubation 120 min),change in gene expression of TAS2R40 (TAS2R40; incubation 15 min),change in gene expression of TAS2R40 (TAS2R40; incubation 30 min),change in gene expression of TAS2R40 (TAS2R40; incubation 60 min),change in gene expression of TAS2R40 (TAS2R40; incubation 120 min),change in gene expression of TAS2R30 (TAS2R30; incubation 15 min),change in gene expression of TAS2R30 (TAS2R30; incubation 30 min),change in gene expression of TAS2R30 (TAS2R30; incubation 60 min),change in gene expression of TAS2R30 (TAS2R30; incubation 120 min),change in gene expression of TAS2R42 (TAS2R42; incubation 15 min),change in gene expression of TAS2R42 (TAS2R42; incubation 30 min),change in gene expression of TAS2R42 (TAS2R42; incubation 60 min),change in gene expression of TAS2R42 (TAS2R42; incubation 120 min),change in gene expression of TAS2R9 (TAS2R9; incubation 15 min),change in gene expression of TAS2R9 (TAS2R9; incubation 30 min),change in gene expression of TAS2R9 (TAS2R9; incubation 60 min),change in gene expression of TAS2R9 (TAS2R9; incubation 120 min),also measured
VAPFPEVF [bitter casein peptide αS1-CN25–32],0.66 fold change,1.14 fold change,0.70 fold change,1.22 fold change,0.81 fold change,1.54 fold change,0.88 fold change,1.42 fold change,0.56 fold change,1.53 fold change,0.75 fold change,1.62 fold change,0.52 fold change,0.88 fold change,0.71 fold change,1.20 fold change,1.73 fold change,1.08 fold change,2.31 fold change,0.99 fold change,"decrease of the peptide-induced increase in proton secretion activity in TAS2R16kd cells (TAS2R16): 77.4 ± 10.1%; change of peptide-induced proton secretion, TAS2R16kd (Figure 5B–D) (TAS2R16): -77.4 ±10.1%; change in gene expression of TAS2R10 (TAS2R10; incubation 15 min): 0.34 fold change and 0.34 ± 0.05 fold change; change in gene expression of TAS2R10 (TAS2R10; incubation 30 min): 0.76 fold change; change in gene expression of TAS2R10 (TAS2R10; incubation 60 min): 0.91 fold change; change in gene expression of TAS2R10 (TAS2R10; incubation 120 min): 1.15 fold change; change in gene expression of TAS2R13 (TAS2R13; incubation 15 min): 0.44 fold change; change in gene expression of TAS2R13 (TAS2R13; incubation 30 min): 1.28 fold change; change in gene expression of TAS2R13 (TAS2R13; incubation 60 min): 1.01 fold change; change in gene expression of TAS2R13 (TAS2R13; incubation 120 min): 1.92 fold change; change in gene expression of TAS2R60 (TAS2R60): not detected; change in gene expression of TAS2R46 (TAS2R46; incubation 15 min): 0.62 fold change; change in gene expression of TAS2R46 (TAS2R46; incubation 30 min): 1.47 fold change; change in gene expression of TAS2R46 (TAS2R46; incubation 60 min): 0.85 fold change; change in gene expression of TAS2R46 (TAS2R46; incubation 120 min): 1.95 fold change"
YFYPEL [bitter casein peptide αS1-CN144–149],1.65 fold change,0.91 fold change,0.96 fold change,1.09 fold change,1.90 fold change,0.82 fold change,0.59 fold change,0.75 fold change,1.79 fold change,0.62 fold change,0.89 fold change,1.15 fold change,1.17 fold change,0.55 fold change,0.69 fold change,0.93 fold change,0.66 fold change,2.64 fold change,3.01 fold change,1.41 fold change,"decrease of the peptide-induced increase in proton secretion activity in TAS2R16kd cells (TAS2R16): 86.3 ± 9.9%; change of peptide-induced proton secretion, TAS2R16kd (Figure 5B–D) (TAS2R16): -86.3 ±9.9%; change in gene expression of TAS2R10 (TAS2R10; incubation 15 min): 0.64 fold change; change in gene expression of TAS2R10 (TAS2R10; incubation 30 min): 0.41 fold change and 0.41 ± 0.05 fold change; change in gene expression of TAS2R10 (TAS2R10; incubation 60 min): 0.72 fold change; change in gene expression of TAS2R10 (TAS2R10; incubation 120 min): 0.90 fold change; change in gene expression of TAS2R13 (TAS2R13; incubation 15 min): 1.14 fold change; change in gene expression of TAS2R13 (TAS2R13; incubation 30 min): 0.53 fold change; change in gene expression of TAS2R13 (TAS2R13; incubation 60 min): 0.78 fold change; change in gene expression of TAS2R13 (TAS2R13; incubation 120 min): 0.88 fold change; change in gene expression of TAS2R60 (TAS2R60): not detected; change in gene expression of TAS2R46 (TAS2R46; incubation 15 min): 1.70 fold change; change in gene expression of TAS2R46 (TAS2R46; incubation 30 min): 0.73 fold change; change in gene expression of TAS2R46 (TAS2R46; incubation 60 min): 1.01 fold change; change in gene expression of TAS2R46 (TAS2R46; incubation 120 min): 1.30 fold change"
